Data: patent US20250235427A1, “5-METHOXY-N,N-[…][…] THE TREATMENT OF SOCIAL/EMOTIONAL […] DETACHMENT” (GH RESEARCH IRELAND LIMITED, priority 2022, published 2025)

Tested on: patients with postpartum depression (PPD)
Assay: Clinical trial, inhaled 5-MeO-DMT individualized dosing regimen in postpartum depression (one patient so far)
Description: The single-arm, open-label clinical trial will involve 15 adult female patients with clinically diagnosed postpartum depression (PPD).
The second dose (12 mg) will only be administered if: • a. […] The 6 mg dose was safe and well-tolerated according to the investigator, • c. Any psychoactive effects (PsE) of the prior dose have subsided, and • d. Pre-dose vital parameters and forced expiratory volume in one second (FEV1) are in normal range, or if outside of the normal range, are not clinically significant according to the investigator. • 3. Similarly, a third dose (18 mg) will only be administered if: • a. […] The 12 mg dose was safe and well-tolerated according to the investigator, and • c. Any PsE of the prior dose have subsided, and • d. Pre-dose vital parameters and forced expiratory volume in one second (FEV1) are in normal range, or if outside of the normal range, are not clinically significant according to the investigator.
The patients will be assessed for a peak psychedelic experience (based on a patient-scored visual analogue scale, the PE scale), sedation, and other endpoints after dosing. Follow-up visits are planned for Day 1, and Day 7 after the dosing day.

COc1ccc2[nH]cc(CCN(C)C)c2c1 [5-MeO-DMT]
BPRS Disorientation score (Day 7, baseline 1): 1
BPRS Grandiosity improvement (Day 7, baseline 1): 0
BPRS Grandiosity score (Day 7, baseline 1): 1
BPRS Hallucinatory behaviour improvement (Day 7, baseline 1): 0
BPRS Hallucinatory behaviour score (Day 7, baseline 1): 1
BPRS Hostility improvement (Day 7, baseline 1): 0
BPRS Hostility score (Day 7, baseline 1): 1
BPRS Mannerisms and Posturing improvement (Day 7, baseline 1): 0
BPRS Mannerisms and Posturing score (Day 7, baseline 1): 1
BPRS Motor retardation improvement (Day 7, baseline 1): 0
BPRS Motor retardation score (Day 7, baseline 1): 1
BPRS Suspiciousness improvement (Day 7, baseline 1): 0
BPRS Suspiciousness score (Day 7, baseline 1): 1
BPRS Uncooperativeness improvement (Day 7, baseline 1): 0
BPRS Uncooperativeness score (Day 7, baseline 1): 1
BPRS Unusual Thought Content improvement (Day 7, baseline 1): 0
BPRS Unusual Thought Content score (Day 7, baseline 1): 1
BPRS Excitement improvement (Day 7, baseline 2): 1
BPRS Excitement score (Day 7, baseline 2): 1
MADRS Inability to Feel improvement (Day 7, baseline 3): 3
MADRS Inability to Feel score (Day 7, baseline 3): 0
MADRS Lassitude improvement (Day 7, baseline 3): 3
MADRS Lassitude score (Day 7, baseline 3): 0
MADRS Pessimistic Thoughts improvement (Day 7, baseline 4): 4
MADRS Pessimistic Thoughts score (Day 7, baseline 4): 0
MADRS Reported sadness improvement (Day 7, baseline 4): 4
MADRS Reported sadness score (Day 7, baseline 4): 0
BPRS Emotional withdrawal improvement (Day 7, baseline 5): 4
BPRS Emotional withdrawal score (Day 7, baseline 5): 1
MADRS Apparent sadness improvement (Day 7, baseline 5): 5
MADRS Apparent sadness score (Day 7, baseline 5): 0
MADRS Inner Tension improvement (Day 7, baseline 5): 4
MADRS Inner Tension score (Day 7, baseline 5): 1
MADRS Reduced Sleep improvement (Day 7, baseline 5): 5
MADRS Reduced Sleep score (Day 7, baseline 5): 0
BPRS Depressive Mood improvement (Day 7, baseline 6): 5
BPRS Depressive Mood score (Day 7, baseline 6): 1
BPRS Guilt feelings improvement (Day 7, baseline 6): 5
BPRS Guilt feelings score (Day 7, baseline 6): 1
BPRS Somatic Concern improvement (Day 7, baseline 6): 5
BPRS Somatic Concern score (Day 7, baseline 6): 1
BPRS Tension improvement (Day 7, baseline 6): 5
BPRS Tension score (Day 7, baseline 6): 1
BPRS Anxiety improvement (Day 7, baseline 7): 6
BPRS Anxiety score (Day 7, baseline 7): 1
BIMF functional domain Adjustment Δ (Day 7) (Day 7 vs Day 0): 1
BIMF functional domain Infant Care Δ (Day 7) (Day 7 vs Day 0): 0
BIMF functional domain Management Δ (Day 7) (Day 7 vs Day 0): 5
BIMF functional domain Mother-Child Interaction Δ (Day 7) (Day 7 vs Day 0): 2
BIMF functional domain Psychological Well-being Δ (Day 7) (Day 7 vs Day 0): 9
BIMF functional domain Self Care Δ (Day 7) (Day 7 vs Day 0): 4
BIMF functional domain Social Support Δ (Day 7) (Day 7 vs Day 0): 1
BIMF item 1 (I am a good mother) Δ (Day 7) (Day 7 vs Day 0): 0
BIMF item 2 (I feel rested) Δ (Day 7) (Day 7 vs Day 0): 2
BIMF item 3 (I am comfortable with the way I've chosen to feed my baby) Δ (Day 7) (Day 7 vs Day 0): 0
BIMF item 4 (My baby and I understand each other) Δ (Day 7) (Day 7 vs Day 0): 0
BIMF item 5 (I am able to relax and enjoy time with my baby) Δ (Day 7) (Day 7 vs Day 0): 1
BIMF item 6 (There are people in my life that I can trust to care for my baby when I need a break) Δ (Day 7) (Day 7 vs Day 0): 0
BIMF item 8 (I am getting enough adult interaction) Δ (Day 7) (Day 7 vs Day 0): 0
BIMF item 9 (I am getting enough encouragement from other people) Δ (Day 7) (Day 7 vs Day 0): 1
BIMF item 10 (I trust my own feelings (instincts) when it comes to taking care of my baby) Δ (Day 7) (Day 7 vs Day 0): 1
BIMF item 11 (I take a little time each week to do something for myself) Δ (Day 7) (Day 7 vs Day 0): 1
BIMF item 12 (I am taking good care of my baby's physical needs) Δ (Day 7) (Day 7 vs Day 0): 0
BIMF item 13 (I am taking good care of my physical needs) Δ (Day 7) (Day 7 vs Day 0): 1
BIMF item 14 (I make good decisions about my baby's health and well being) Δ (Day 7) (Day 7 vs Day 0): 0
BIMF item 15 (My baby and I are getting into a routine) Δ (Day 7) (Day 7 vs Day 0): 1
BIMF item 16 (I worry about how other people judge me (as a mother)) Δ (Day 7) (Day 7 vs Day 0): 2
BIMF item 17 (I am able to take care of my baby and my other responsibilities) Δ (Day 7) (Day 7 vs Day 0): 0
BIMF item 18 (Anxiety or worry often interferes with my mothering ability) Δ (Day 7) (Day 7 vs Day 0): 3
BIMF item 19 (As time goes on, I am getting better at taking care of my baby) Δ (Day 7) (Day 7 vs Day 0): 1
BIMF item 20 (I am satisfied with the job I am doing as a new mother) Δ (Day 7) (Day 7 vs Day 0): −1
BPRS Blunted affect improvement (Discharge, baseline 1): 0
BPRS Blunted affect score (Discharge, baseline 1): 1
BPRS Conceptual disorganization improvement (Discharge, baseline 1): 0
BPRS Conceptual disorganization score (Discharge, baseline 1): 1
BPRS Disorientation improvement (Discharge, baseline 1): 0
BPRS Disorientation score (Discharge, baseline 1): 1
BPRS Grandiosity improvement (Discharge, baseline 1): 0
BPRS Grandiosity score (Discharge, baseline 1): 1
BPRS Hallucinatory behaviour improvement (Discharge, baseline 1): 0
BPRS Hallucinatory behaviour score (Discharge, baseline 1): 1
BPRS Hostility improvement (Discharge, baseline 1): 0
BPRS Hostility score (Discharge, baseline 1): 1
BPRS Mannerisms and Posturing improvement (Discharge, baseline 1): 0
BPRS Mannerisms and Posturing score (Discharge, baseline 1): 1
BPRS Motor retardation improvement (Discharge, baseline 1): 0
BPRS Motor retardation score (Discharge, baseline 1): 1
BPRS Suspiciousness improvement (Discharge, baseline 1): 0
BPRS Suspiciousness score (Discharge, baseline 1): 1
BPRS Uncooperativeness improvement (Discharge, baseline 1): 0
BPRS Uncooperativeness score (Discharge, baseline 1): 1
BPRS Unusual Thought Content improvement (Discharge, baseline 1): 0
BPRS Unusual Thought Content score (Discharge, baseline 1): 1
BPRS Excitement improvement (Discharge, baseline 2): 1
BPRS Excitement score (Discharge, baseline 2): 1
BPRS Emotional withdrawal improvement (Discharge, baseline 5): 4
BPRS Emotional withdrawal score (Discharge, baseline 5): 1
BPRS Depressive Mood improvement (Discharge, baseline 6): 5
BPRS Depressive Mood score (Discharge, baseline 6): 1
BPRS Guilt feelings improvement (Discharge, baseline 6): 5
BPRS Guilt feelings score (Discharge, baseline 6): 1
BPRS Somatic Concern improvement (Discharge, baseline 6): 5
BPRS Somatic Concern score (Discharge, baseline 6): 1
BPRS Tension score (Discharge, baseline 6): 1
BPRS Anxiety improvement (Discharge, baseline 7): 6
BPRS Anxiety score (Discharge, baseline 7): 1
ECG, safety laboratory analyses, CADSS (ECG 3 hours, laboratory 7 days, CADSS 3 hours, 1 day and 7 days): unremarkable
changes in vital parameters (shortly after administration): temporary, clinically non-relevant increase in heart rate and blood pressure
